According to patent US5399487A, “6-peptidylamino-1-naphthalenesulfonamides useful as fluorogenic proteolytic enzyme substrates” (Haematologic Technologies, Inc., priority 1993, dated 1995):

Experiments:
Format in all cases: biochemical
thrombin (IIa) = target: T1, thrombin (IIa) (Homo sapiens, UniProt P00734); test: Fluorogenic enzyme assay (Example 5)
T1 construct: 0.5 nM human thrombin (IIa)
Method in brief: (§1)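 Km/kcat by nonlinear least-squares Michaelis-Menten fitting of initial rates. Buffer TBS pH 7.4, 22° C; substrate diluted from 10 mM DMSO stock into TBS; 6-amino-1-naphthalenesulfonamide release read at ex 352/em 470 nm vs standard curve.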

[1] = target: activated protein C (APC) (Homo sapiens, UniProt P04070); test: Fluorogenic enzyme assay (Example 5); parameters: key to Kinetic constants, APC (symbol b): slow substrate hydrolysis, no kinetic constants calculated
Sequence of activated protein C (APC) (P04070 212-461 limits assumed): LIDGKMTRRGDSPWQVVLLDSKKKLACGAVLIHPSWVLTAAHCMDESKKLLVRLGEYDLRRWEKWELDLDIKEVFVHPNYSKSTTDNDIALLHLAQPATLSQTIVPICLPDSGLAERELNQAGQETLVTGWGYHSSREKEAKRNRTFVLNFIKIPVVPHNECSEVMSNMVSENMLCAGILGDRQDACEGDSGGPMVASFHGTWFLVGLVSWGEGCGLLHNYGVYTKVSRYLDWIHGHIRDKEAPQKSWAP
Sequence of activated protein C (APC) (P04070 43-197 limits assumed): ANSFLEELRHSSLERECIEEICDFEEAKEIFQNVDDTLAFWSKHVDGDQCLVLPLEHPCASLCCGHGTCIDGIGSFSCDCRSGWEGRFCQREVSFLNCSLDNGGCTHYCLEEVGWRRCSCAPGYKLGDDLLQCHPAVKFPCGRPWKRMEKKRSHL
Method in brief: as §1

plasmin (Plm) = plasmin (Plm) (Homo sapiens, UniProt P00747); test: Fluorogenic enzyme assay (Example 5); settings: 10 nM enzyme, substrate 1 μM
Sequence of plasmin (Plm) (P00747 581-810 limits assumed, species assumed): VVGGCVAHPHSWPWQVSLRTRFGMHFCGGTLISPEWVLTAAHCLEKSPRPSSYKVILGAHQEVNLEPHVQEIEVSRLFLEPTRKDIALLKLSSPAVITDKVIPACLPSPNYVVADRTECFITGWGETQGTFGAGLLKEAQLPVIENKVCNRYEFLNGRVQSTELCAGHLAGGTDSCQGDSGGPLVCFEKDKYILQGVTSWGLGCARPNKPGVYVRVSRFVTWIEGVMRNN
Sequence of plasmin (Plm) (P00747 97-580 limits assumed, species assumed): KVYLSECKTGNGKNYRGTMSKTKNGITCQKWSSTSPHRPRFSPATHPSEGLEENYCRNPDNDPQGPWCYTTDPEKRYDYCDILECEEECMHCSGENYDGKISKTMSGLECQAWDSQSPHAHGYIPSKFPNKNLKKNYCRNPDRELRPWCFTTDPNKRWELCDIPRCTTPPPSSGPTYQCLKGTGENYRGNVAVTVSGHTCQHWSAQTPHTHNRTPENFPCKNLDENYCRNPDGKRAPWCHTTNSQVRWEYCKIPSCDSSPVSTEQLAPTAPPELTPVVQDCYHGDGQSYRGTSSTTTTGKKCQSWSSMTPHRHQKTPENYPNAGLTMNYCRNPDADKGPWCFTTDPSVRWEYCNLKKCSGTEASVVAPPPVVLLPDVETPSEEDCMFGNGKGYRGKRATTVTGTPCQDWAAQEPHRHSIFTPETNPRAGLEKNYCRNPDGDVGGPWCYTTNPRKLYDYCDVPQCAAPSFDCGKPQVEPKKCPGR
Method in brief: as §1

[2] = target: tissue plasminogen activator (t-PA) (Homo sapiens, UniProt P00750); test: Fluorogenic enzyme assay (Example 5); settings: 100 nM enzyme, substrate 1 μM
Sequence of tissue plasminogen activator (t-PA) (P00750 36-562, species assumed): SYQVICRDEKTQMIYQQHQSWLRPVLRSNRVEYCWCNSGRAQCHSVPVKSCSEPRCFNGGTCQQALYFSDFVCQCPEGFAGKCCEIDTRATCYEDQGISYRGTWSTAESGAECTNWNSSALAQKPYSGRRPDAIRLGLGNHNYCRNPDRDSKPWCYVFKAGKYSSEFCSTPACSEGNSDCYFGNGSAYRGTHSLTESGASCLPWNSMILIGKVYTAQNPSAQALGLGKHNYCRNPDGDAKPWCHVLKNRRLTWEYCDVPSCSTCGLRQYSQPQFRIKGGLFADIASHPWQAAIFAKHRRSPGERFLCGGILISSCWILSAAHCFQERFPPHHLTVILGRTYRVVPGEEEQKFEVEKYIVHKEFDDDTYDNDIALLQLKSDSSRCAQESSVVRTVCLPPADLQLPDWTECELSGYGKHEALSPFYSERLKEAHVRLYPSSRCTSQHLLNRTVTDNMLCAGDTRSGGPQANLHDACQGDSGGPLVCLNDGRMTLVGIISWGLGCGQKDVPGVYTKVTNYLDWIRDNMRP
Method in brief: as §1

urokinase (u-PA) = urokinase (u-PA) (Homo sapiens, UniProt P00749); test: Fluorogenic enzyme assay (Example 5); settings: 100 nM enzyme, substrate 1 μM
factor VIIa = target: T2, factor VIIa (Homo sapiens, UniProt P08709); test: Fluorogenic enzyme assay, relative hydrolysis rates (Table 8); settings: 10 nM enzyme, substrate 1 μM
T2 construct: directly measure the enzymatic activity of factor VIIa in the presence and absence of tissue factor and phospholipid
T2 sequence (P08709 213-466 limits assumed): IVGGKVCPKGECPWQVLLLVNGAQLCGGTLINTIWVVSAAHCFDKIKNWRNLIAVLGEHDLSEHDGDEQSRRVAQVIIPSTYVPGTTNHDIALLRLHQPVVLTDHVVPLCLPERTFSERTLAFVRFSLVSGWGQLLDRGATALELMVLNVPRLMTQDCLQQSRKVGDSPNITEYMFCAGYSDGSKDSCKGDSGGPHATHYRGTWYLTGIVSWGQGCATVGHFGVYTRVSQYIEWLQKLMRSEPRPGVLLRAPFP
T2 sequence (P08709 61-212 limits assumed): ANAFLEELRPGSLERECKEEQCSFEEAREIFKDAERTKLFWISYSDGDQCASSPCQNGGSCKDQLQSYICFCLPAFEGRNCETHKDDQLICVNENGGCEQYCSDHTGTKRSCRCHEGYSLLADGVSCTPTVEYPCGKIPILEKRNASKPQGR

VIIa/Ca^2+ = target: T3, VIIa/Ca^2+ (Homo sapiens, UniProt P08709); test: Fluorogenic factor VIIa assay (Example 6); settings: HBS, 37° C., 50 nM rVIIa
T3 construct: directly measure the enzymatic activity of factor VIIa in the presence and absence of tissue factor and phospholipid
T3 sequence (P08709 213-466 limits assumed): T2 sequence (P08709 213-466 limits assumed)
T3 sequence (P08709 61-212 limits assumed): T2 sequence (P08709 61-212 limits assumed)
Method: (§2) Factor VII assays were conducted in 20 mM HEPES, 150 mM NaCl, 5 mM CaCl2, pH 7.4 (HBS) at 37° C. The final volume for all reactions was 1.6 ml. 6-(Mes-D-Leu-Gly-Arg)amino-1-(N,N-diethyl)naphthalenesulfonamide was dissolved in DMSO to a stock concentration of 10 mM. This 10 mM stock solution of was diluted in HBS to final working concentration prior to all assays. For reactions involving tissue factor (TF) and phospholipid vesicles, recombinant human tissue factor was solubilized in either 0.04% n-dodecyl octaethylene glycol (C12 E8) or 0.8% octyl glucoside. The TF/n-dodecyl octaethylene glycol was then relipidated into PCPS or PC vesicles by a 30 minute incubation step as described by Lawson & Mann, J. Biol. Chem. 266: 11317-11327 (1991). TF/octyl glucoside was relipidated into PC or PCPS vesicles by a thirty minute incubation step followed by exhaustive dialysis. The final concentration of tissue factor used in the studies described here ranged from 2 to 50 nM depending on the nature of the experiment.
(§3) Fifteen minutes prior to the start of all reactions factor VIIa was added to the reaction system. This incubation period was followed by the addition of substrate (1 μM to 400 μM) to the mixture to start the reaction. In experiments designed to determine kinetic constants of substrate hydrolysis, 50 nM rVIIa was used when no tissue factor was present in the reaction system, while 0.5 nM rVIIa was used when tissue factor was present in the reaction system. The rate of substrate hydrolysis was measured by change in fluorescence over time, which corresponded with the generation of the 6-amino-1-(N,N-diethyl)naphthalenesulfonamide from the provided substrate. The kinetic constants of 6-(Mes-D-Leu-Gly-Arg)amino-1-(N,N-diethyl)naphthalenesulfonamide hydrolysis as a function of factor VIIa/tissue factor complex assembly are shown in Table 10.

VIIa/PCPS/Ca^2+ = target: T4, VIIa/PCPS/Ca^2+ (Homo sapiens, UniProt P08709); test: Fluorogenic factor VIIa assay (Example 6); settings: HBS, 37° C., 50 nM rVIIa
T4 construct: directly measure the enzymatic activity of factor VIIa in the presence and absence of tissue factor and phospholipid
T4 sequence (P08709 213-466 limits assumed): T2 sequence (P08709 213-466 limits assumed)
T4 sequence (P08709 61-212 limits assumed): T2 sequence (P08709 61-212 limits assumed)
Method: as §2, §3

VIIa/TF/PC/CA^2+ = target: T5, VIIa/TF/PC/CA^2+ (Homo sapiens, UniProt P08709); test: Fluorogenic factor VIIa assay (Example 6); settings: HBS, 37° C., 0.5 nM rVIIa
T5 construct: directly measure the enzymatic activity of factor VIIa in the presence and absence of tissue factor and phospholipid
T5 sequence (P13726 33-295 partner, one chain of several): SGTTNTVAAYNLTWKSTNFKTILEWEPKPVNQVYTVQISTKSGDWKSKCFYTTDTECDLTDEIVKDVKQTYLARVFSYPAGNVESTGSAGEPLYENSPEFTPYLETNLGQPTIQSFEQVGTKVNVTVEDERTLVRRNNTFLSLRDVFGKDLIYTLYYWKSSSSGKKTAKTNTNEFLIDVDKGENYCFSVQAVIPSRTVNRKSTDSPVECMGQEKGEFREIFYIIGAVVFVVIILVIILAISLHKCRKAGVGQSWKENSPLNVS
Method: as §2, §3

VIIa/TF/PCPS/Ca^2+ = target: T6, VIIa/TF/PCPS/Ca^2+ (Homo sapiens, UniProt P08709); test: Fluorogenic factor VIIa assay (Example 6); settings: HBS, 37° C., 0.5 nM rVIIa
T6 construct: directly measure the enzymatic activity of factor VIIa in the presence and absence of tissue factor and phospholipid
T6 sequence (P13726 33-295 partner, one chain of several): as above
Method: as §2, §3

SMILES: CCN(CC)S(=O)(=O)c1cccc2cc(NC(=O)[C@H](CCCNC(=N)N)NC(=O)CNC(=O)[C@@H](CC(C)C)NS(C)(=O)=O)ccc12 [MesD-LPR-ANSN(C2 H5)2, 6-(Mes-D-Leu-Gly-Arg)amino-1-(N,N-diethyl)napththalenesulfonamide]
- TIME TO 10% HYDROLYSIS (HOURS), IIa (thrombin (IIa); 10 nM enzyme, substrate 1 μM): 0.33 h
- Km (thrombin (IIa); Table 9): 31.6 µM
- kcat /Km, IIa (thrombin (IIa); Table 9): 20000 M⁻¹ s⁻¹
- kcat, IIa (thrombin (IIa); Table 9): 0.63 s⁻¹
- TIME TO 10% HYDROLYSIS (HOURS), APC ([1]; 100 nM enzyme (footnote b), substrate 1 μM): 0.5 h
- Kinetic constants, APC (symbol b) ([1]; Table 9): b
- TIME TO 10% HYDROLYSIS (HOURS), Plm (plasmin (Plm)): 1 h
- TIME TO 10% HYDROLYSIS (HOURS), t-PA [2]: 2 h
- TIME TO 10% HYDROLYSIS (HOURS), u-PA (urokinase (u-PA)): 2 h
- TIME TO 10% HYDROLYSIS (HOURS), VIIa (factor VIIa): 4 h
- kcat /Km (VIIa/Ca^2+): 41.4 M^-1 S^-1
- kcat sec^-1 ± S.E. (VIIa/Ca^2+): 0.010 ± 0.002 s⁻¹
- Km (VIIa/Ca^2+; read-out: Km μM ± S.E.): 249 ± 88.5 µM
- kcat /Km (VIIa/PCPS/Ca^2+): 32.6 M^-1 S^-1
- kcat sec^-1 ± S.E. (VIIa/PCPS/Ca^2+): 0.019 ± 0.003 s⁻¹
- Km (VIIa/PCPS/Ca^2+; read-out: Km μM ± S.E.): 580 ± 101 µM
- kcat /Km (VIIa/TF/PC/CA^2+): 4206 M^-1 S^-1
- kcat sec^-1 ± S.E. (VIIa/TF/PC/CA^2+): 0.875 ± 0.032 s⁻¹
- Km (VIIa/TF/PC/CA^2+; read-out: Km μM ± S.E.): 208 ± 12 µM
- kcat /Km (VIIa/TF/PCPS/Ca^2+): 4166 M^-1 S^-1
- kcat sec^-1 ± S.E. (VIIa/TF/PCPS/Ca^2+): 0.675 ± 0.046 s⁻¹
- Km (VIIa/TF/PCPS/Ca^2+; read-out: Km μM ± S.E.): 162 ± 16 µM
